According to patent US20230381142A1, “ANTILEISHMANIAL COMPOUNDS, COMPOSITIONS AND USE THEREOF” (TRUSTEES OF BOSTON UNIVERSITY, priority 2022, published 2023):
pEC50, pIC50: −log10 of the molar value. Where two headings read alike, the source gives them in different places.

Key:
host THP-1 macrophages = assay: GSK inMac assay, host cell toxicity readout (LD MAC); format: cell-based, human
Procedure, shortened: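 Intramacrophage L. donovani assay in THP-1 macrophages; host toxicity taken from host cell number per well, giving MAC EC50. Run alongside amastigote-per-cell and infected-cell readouts in the same wells.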

[1] = Host THP-1 cell cytotoxicity in the CDIPD high content screen; format: cell-based, human; details: human
Procedure: (§1) Assay Conditions B: THP-1 cells (human acute monocytic leukemia cell line—ATCC TIB202) were grown in RPMI supplemented with 10% Fetal Bovine Serum (FBS) and 50 μM 2-mercaptoethanol at 37° C. in 5% CO2. THP-1 were seeded in microwell plates at 5×10^5 cells/mL density and treated with 0.1 μM phorbol myristate acetate (PMA, Sigma) at 37° C. for 48 h for differentiation into adherent, non-dividing macrophages. After activation by PMA, cells were washed and incubated with complete RPMI medium containing stationary phase Leishmania promastigotes (L. major: strain LV39; L. donovani, strain 1S/Cl2D) at a 1:15 parasite-cell ratio. Compounds were added and incubated at 37° C. for 72 h. Cells were then washed with phosphate-buffered saline (PBS), fixed for 30 minutes with 4% formaldehyde, rinsed again with PBS, stained for 2 h with 4′,6′-diamidino-2-phenylindole (DAPI 300 nM) and finally washed with PBS. In a collaborative effort to identify new antileishmanial chemotypes with minimal host cell cytotoxicity, compounds from the Boston University Center for Molecular Discovery (BUCMD) screening collection were assessed in a phenotypic, high content primary screen at the University of California's Center for Discovery and Innovation in Parasitic Diseases (CDIPD) for the ability to inhibit growth of L. donovani intracellular amastigotes infecting THP-1 cells. […] Dose-response testing in L. donovani (both intracellular amastigotes and promastigotes) confirmed concentration-dependent growth inhibition of both morphologies of the parasite at low micromolar EC50 values for both compounds (Table 1).

[2] = Artificial membrane permeability (AMP); format: in vitro ADME; details: PAMPA, pH 7.4
Procedure, shortened: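 Passive permeation through 1.8% phosphatidylcholine in 1% decane membrane, 50 mM phosphate buffer pH 7.4 on donor and receiver sides. After 45 min pre-shaking, compounds incubated 3 h at room temperature with shaking, in duplicate; donor and receiver solutions quantified by LC/MS.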

[3] = test system: L. donovani intracellular amastigotes infecting THP-1 cells; assay: High content intracellular amastigote assay in THP-1 cells (Assay Conditions B; CDIPD screen); format: cell-based, Leishmania donovani; details: Leishmania donovani; THP-1 host cells
Procedure: as §1

human serum albumin = human serum albumin (Homo sapiens, UniProt P02768); assay: Human serum albumin (HSA) binding, chromatographic; format: in vitro ADME
Chain of human serum albumin (P02768 25-609): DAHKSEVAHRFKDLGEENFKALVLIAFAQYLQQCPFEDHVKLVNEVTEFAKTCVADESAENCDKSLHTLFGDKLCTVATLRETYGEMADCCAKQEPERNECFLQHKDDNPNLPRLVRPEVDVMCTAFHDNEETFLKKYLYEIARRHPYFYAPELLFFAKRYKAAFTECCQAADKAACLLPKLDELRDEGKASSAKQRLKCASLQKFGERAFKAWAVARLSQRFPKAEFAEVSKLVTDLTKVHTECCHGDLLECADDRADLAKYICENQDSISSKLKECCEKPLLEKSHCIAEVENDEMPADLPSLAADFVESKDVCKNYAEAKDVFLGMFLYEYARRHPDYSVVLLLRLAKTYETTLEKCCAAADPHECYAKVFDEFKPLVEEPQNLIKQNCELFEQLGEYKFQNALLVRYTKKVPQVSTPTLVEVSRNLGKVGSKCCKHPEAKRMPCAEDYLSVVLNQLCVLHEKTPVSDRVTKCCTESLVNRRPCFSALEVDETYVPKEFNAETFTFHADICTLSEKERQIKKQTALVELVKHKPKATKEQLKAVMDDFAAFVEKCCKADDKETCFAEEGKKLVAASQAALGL
Procedure: The percentage of compound bound to human serum albumin was measured using a chromatographic method as described. Briefly, each compound was assayed on an immobilized HSA column and gradient retention times measured, with chromatographic peak detection by UV. Each retention time was then converted to a % HSA bound value using a calibration set of compounds with a known % HSA binding.

[4] = test system: L. donovani intracellular amastigotes infecting THP-1 macrophages; assay: GSK intramacrophage L. donovani assay (LD AMMAC, inMac; Assay Conditions C); format: cell-based; details: Leishmania donovani
Procedure, shortened: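 L. donovani amastigotes within THP-1 macrophages; EC50 based on average intracellular amastigotes per infected cell (AMMAC). Infected-cell percentage (INFCELL) and host-cell number (MAC) also read, the latter as toxicity output.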

[5] = Homo sapiens, THP-1, cytotoxicity against host THP-1 macrophages
[6] = growth inhibition of L. donovani intracellular amastigotes infecting THP-1 macrophages, read-out: LD AMMAC EC50

Papp at 3 h [2]	HSA Binding (human serum albumin)	pIC50 ([4]; THP-1)	pEC50 ([4]; THP-1, GSK lead selection criteria, read-out: Antiparasitic activity EC50, L. donovani amastigotes)	pEC50 [4, 6]	SMILES	pEC50 (host THP-1 macrophages; [5])	pEC50 (host THP-1 macrophages; cytotoxicity against host THP-1 macrophages, listed as rac-1)	CC50 at 72 h [1]	pEC50 [3]
34.5 ×10⁻⁶ cm/s	96.4%	5.60	5.60	5.60	COc1ccc(N2C(=O)c3[nH]nc(CC(C)C)c3C2c2ccc(F)cc2)cc1 (racemic) [Compound 1, 4-(4-fluorophenyl)-3-isobutyl-5-(4-methoxyphenyl)-4,5-dihydropyrrolo[3,4-c]pyrazol-6(1H)-one]	4.80	4.80	> 20 µM	5.60
37 ×10⁻⁶ cm/s	95.8%	5.49		5.49	COc1ccc(N2C(=O)c3[nH]nc(CC(C)C)c3C2c2ccccc2)cc1 (stereo not shown) [Compound 2]	4.50		> 20 µM	5.43
